From patent publication US9382261B2, “Substituted quinazolinones as HCV inhibitors” (Janssen R&D Ireland, priority 2011, dated 2016)

What was measured:
[1] = tested on: HCV subgenomic replicon genotype 1a H77; assay: HCV replicon assay, transient transfection, genotype 1a H77 (Huh-7 lunet, luciferase readout); type: cell-based, HCV genotype 1a H77; conditions: Hepatitis C virus, 48 h, Huh-7 lunet transiently transfected, genotype 1a H77, two days incubation
From the text: (§1) In a transient set-up, a Huh-7 lunet hepatoma cell line was transiently transfected with an autonomously replicating RNA encoding a bi-cistronic expression construct. This construct comprises a firefly luciferase reporter gene preceding the NS3-NS5B subgenomic region of HCV (genotype 1a H77 or 1b Con1). Translation of the HCV subgenomic region is mediated by an internal ribosome entry site of encephalomyocarditis virus. The construct is furthermore flanked by 5′ and 3′ untranslated regions of HCV (genotype 1a H77 or 1b Con1, respectively), which allow for replication of the RNA.
(§2) Cells were plated in 384 well plates in the presence of test and control compounds, which were added in various concentrations. Following an incubation of two days, replication of the HCV subgenomic replicon RNA was measured by assaying luciferase activity (using standard luciferase assay substrates and reagents and a Perkin Elmer ViewLux™ ultraHTS microplate imager). HCV subgenomic replicon containing cells in the control cultures have high luciferase expression in the absence of any inhibitor. The inhibitory activity of the compound was monitored, enabling a dose-response curve for each test compound. EC50 values were then calculated, which represent the amount of compound required to decrease the level of detected luciferase activity by 50%, or more specifically, to reduce the ability of the genetically linked HCV subgenomic RNA to replicate.

[2] = tested on: HCV subgenomic replicon genotype 1b Con1; assay: HCV replicon assay, transient transfection, genotype 1b Con1 (Huh-7 lunet, luciferase readout); type: cell-based, HCV genotype 1b Con1; conditions: Hepatitis C virus, 48 h, Huh-7 lunet transiently transfected, genotype 1b Con1, two days incubation
From the text: as §1, §2

[3] = tested on: HCV replicon type 1b in Huh-Luc cells; assay: HCV replicon assay, stable transfection (Huh-7 luc/neo, luciferase readout); type: cell-based, HCV type 1b; conditions: Hepatitis C virus, Huh-7, 72 h, stably transfected Huh-Luc cells, genotype 1b, three days incubation, average if tested more than once, read-out: HCV-REP-HUH7LUC_EC50
From the text: The compounds of formula (I) were examined for inhibitory activity in the HCV replicon. This cellular assay is based on a bicistronic expression construct, as described by Lohmann et al. (Science (1999) 285: 110-113; Journal of Virology (2003) 77: 3007-3019) with modifications described by Krieger et al. (Journal of Virology (2001) 75: 4614-4624), and Lohmann et al. (Journal of Virology (2003) 77: 3007-3019) for genotype 1b and by Yi et al. (Journal of Virology (2004) 78: 7904-7915) for genotype 1a, in a multi-target screening strategy.
The method was as follows. The assay utilized the stably transfected cell line Huh-7 luc/neo (hereafter referred to as Huh-Luc). This cell line harbors an RNA encoding a bicistronic expression construct comprising the wild type NS3-NS5B regions of HCV type 1b translated from an Internal Ribosome Entry Site (IRES) from encephalomyocarditis virus (EMCV), preceded by a reporter portion (FfL-luciferase), and a selectable marker portion (neoR, neomycine phosphotransferase). The construct is flanked by 5′ and 3′ NTRs (non-translated regions) from HCV type 1b. Continued culture of the replicon cells in the presence of G418 (neoR) is dependent on the replication of the HCV RNA. The stably transfected replicon cells that replicate HCV RNA autonomously and to high levels, encoding inter alia luciferase, were used for screening the antiviral compounds.
The replicon cells were plated in 384 well plates in the presence of the test and control compounds which were added in various concentrations. Following an incubation of three days, HCV replication was measured by assaying luciferase activity (using standard luciferase assay substrates and reagents and a Perkin Elmer ViewLux™ ultraHTS microplate imager). Replicon cells in the control cultures have high luciferase expression in the absence of any inhibitor. The inhibitory activity of the compound was monitored on the Huh-Luc cells, enabling a dose-response curve for each test compound. EC50 values were then calculated, which represent the amount of compound required to decrease the level of detected luciferase activity by 50%, or more specifically, to reduce the ability of the genetically linked HCV replicon RNA to replicate.
Where a compound of formula (I) was tested more than once in the replicon assay, the average of all test results is given in this Table 1.

[4] = Counterscreen Huh7-CMV-Luc; type: cell-based; conditions: human; counterscreen cell line Huh7-CMV-Luc
From the text: (§3) The in vitro antiviral activity against HCV of the compounds of formula I can be tested in a cellular HCV replicon system based on Lohmann et al. (1999) Science 285:110-113, with the further modifications described by Krieger et al. (2001) Journal of Virology 75: 4614-4624 and Lohmann et al. (2003) Journal of Virology 77: 3007-3019 for genotype 1b and by Yi et al. (2004) Journal of Virology 78: 7904-7915 for genotype 1a (incorporated herein by reference), which is further exemplified in the examples section. This model, while not a complete infection model for HCV, is widely accepted as the most robust and efficient model of autonomous HCV RNA replication currently available. It will be appreciated that it is important to distinguish between compounds that specifically interfere with HCV functions from those that exert cytotoxic or cytostatic effects in the HCV replicon model, and as a consequence cause a decrease in HCV RNA or linked reporter enzyme concentration. Assays are known in the field for the evaluation of cellular cytotoxicity based for example on the activity of mitochondrial enzymes using fluorogenic redox dyes such as resazurin. Furthermore, cellular counter screens exist for the evaluation of non-selective inhibition of linked reporter gene activity, such as firefly luciferase. Appropriate cell types can be equipped by stable transfection with a luciferase reporter gene whose expression is dependent on a constitutively active gene promoter, and such cells can be used as a counter-screen to eliminate non-selective inhibitors.
(§4) Counterscreen cell lines included a Huh-7 hepatoma cell line containing a human cytomegalovirus major immediate-early promoter-Luc construct (Huh7-CMV-Luc) and an MT4 T-cell line containing a long terminal repeat-Luc reporter (MT4-LTR-Luc).

[5] = Counterscreen MT4-LTR-Luc; type: cell-based; conditions: human; counterscreen cell line MT4-LTR-Luc
From the text: as §3, §4

| SMILES | EC50 [1] [nM] | EC50 [2] [nM] | EC50 [3] [nM] | CC50 [4] [nM] | CC50 [5] [nM] |
| --- | --- | --- | --- | --- | --- |
| COC(=O)N[C@H](C(=O)N1CC2(C[C@H]1c1nc3cc(-c4ccc5cc(-c6cnc([C@@H]7C[C@H]8C[C@H]8N7C(=O)[C@@H](NC(=O)OC)C(C)C)[nH]6)ccc5c4)ccc3c(=O)[nH]1)OCCCO2)C(C)C [Compound 1] | 0.79 | 0.029 | 0.026 | > 980 | > 980 |
| COC(=O)N[C@H](C(=O)N1CC2(C[C@H]1c1ncc(-c3ccc4cc(-c5ccc6c(=O)[nH]c([C@@H]7CC8(CN7C(=O)[C@@H](NC(=O)OC)C(C)C)OCCO8)nc6c5)ccc4c3)[nH]1)OCCO2)C(C)C [Compound 2] | 1.4 | 0.033 | 0.018 | > 980 | > 980 |
| COC(=O)N[C@H](C(=O)N1[C@@H]2C[C@@H]2C[C@H]1c1ncc(-c2ccc3cc(-c4ccc5c(=O)[nH]c([C@@H]6C[C@H]7C[C@H]7N6C(=O)[C@@H](NC(=O)OC)C(C)C)nc5c4)ccc3c2)[nH]1)C(C)C [Compound 3] | 0.16 | 0.012 | 0.017 | > 980 | > 980 |
| COC(=O)N[C@H](C(=O)N1CC2(C[C@H]1c1ncc(-c3ccc4cc(-c5ccc6c(=O)[nH]c([C@@H]7C[C@H]8C[C@H]8N7C(=O)[C@@H](NC(=O)OC)C(C)C)nc6c5)ccc4c3)[nH]1)OCCO2)C(C)C [Compound 4] | 0.103 | 0.013 | 0.008 | > 980 | > 980 |
| COC(=O)N[C@H](C(=O)N1CC2(C[C@H]1c1ncc(-c3ccc4cc(-c5ccc6c(=O)[nH]c([C@@H]7CCCN7C(=O)[C@@H](NC(=O)OC)C(C)C)nc6c5)ccc4c3)[nH]1)OCCO2)C(C)C [Compound 5] | 0.677 | 0.025 | 0.025 | > 980 | > 980 |
| COC(=O)N[C@H](C(=O)N1[C@@H]2C[C@@H]2C[C@H]1c1ncc(-c2ccc3cc(-c4ccc5c(=O)[nH]c([C@@H]6C[C@@H]7CCCC[C@@H]7N6C(=O)[C@@H](NC(=O)OC)C(C)C)nc5c4)ccc3c2)[nH]1)C(C)C [Compound 7] | 0.546 | 0.006 | 0.008 | > 980 | > 980 |
| COC(=O)N[C@H](C(=O)N1CC2(C[C@H]1c1ncc(-c3ccc4cc(-c5ccc6c(=O)[nH]c([C@@H]7C[C@@H]8CCCC[C@@H]8N7C(=O)[C@@H](NC(=O)OC)C(C)C)nc6c5)ccc4c3)[nH]1)OCCO2)C(C)C [Compound 9] | 0.216 | 0.006 | 0.008 | > 980 | > 980 |
| COC(=O)N[C@H](C(=O)N1CCC[C@H]1c1nc2cc(-c3ccc4cc(-c5cnc([C@@H]6C[C@H]7C[C@H]7N6C(=O)[C@@H](NC(=O)OC)C(C)C)[nH]5)ccc4c3)ccc2c(=O)[nH]1)C(C)C [Compound 10] | 0.341 | 0.005 | 0.006 | > 980 | > 980 |
| COC(=O)N[C@H](C(=O)N1[C@@H]2CC[C@@H](C2)[C@H]1c1nc2cc(-c3ccc4cc(-c5cnc([C@@H]6C[C@H]7C[C@H]7N6C(=O)[C@@H](NC(=O)OC)C(C)C)[nH]5)ccc4c3)ccc2c(=O)[nH]1)C(C)C [Compound 12] | 12.5 | 0.109 | 0.27 | > 980 | > 980 |
| COC(=O)N[C@H](C(=O)N1CC2(CC2)C[C@H]1c1ncc(-c2ccc3cc(-c4ccc5c(=O)[nH]c([C@@H]6C[C@@H]7CCCC[C@@H]7N6C(=O)[C@@H](NC(=O)OC)C(C)C)nc5c4)ccc3c2)[nH]1)C(C)C [Compound 13] | 0.36 | 0.009 | 0.006 | > 980 | > 980 |
| COC(=O)N[C@H](C(=O)N1[C@H](c2ncc(-c3ccc4cc(-c5ccc6c(=O)[nH]c([C@@H]7C[C@@H]8CCCC[C@@H]8N7C(=O)[C@@H](NC(=O)OC)C(C)C)nc6c5)ccc4c3)[nH]2)C[C@@H]2CCCC[C@@H]21)C(C)C [Compound 14] | 0.136 | 0.021 | 0.022 | > 980 | > 980 |
| COC(=O)N[C@H](C(=O)N1CCC[C@H]1c1ncc(-c2ccc3cc(-c4ccc5c(=O)[nH]c([C@@H]6C[C@@H]7CCCC[C@@H]7N6C(=O)[C@@H](NC(=O)OC)C(C)C)nc5c4)ccc3c2)[nH]1)C(C)C [Compound 15] | 0.496 | 0.007 | 0.006 | > 980 | > 980 |
